Data published in PubChem BioAssay (NCI).
Where “and” joins values, the source holds several entries; their conditions need not be identical. Equal values may be shown once.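 1) Cells in 96-well plates. 2) Compound, 48 h, 5 concentrations. 3) Linear interpolation between surrounding doses. 4) Unreached endpoint = highest concentration. At the GI50, growth is halved. At the TGI there is no net growth.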

Columns and labels:
Experiment in all cases: DTP human tumour cell line panel, 48 h
IGROV1 ovarian = system: IGROV1 ovarian
HS 578T breast = system: HS 578T breast
HOP-62 NSCLC = system: HOP-62 NSCLC
SK-MEL-5 melanoma = system: SK-MEL-5 melanoma
MALME-3M melanoma = system: MALME-3M melanoma
SR leukemia = system: SR leukemia
OVCAR-8 ovarian = system: OVCAR-8 ovarian
OVCAR-3 ovarian = system: OVCAR-3 ovarian
MOLT-4 leukemia = system: MOLT-4 leukemia
RPMI-8226 leukemia = system: RPMI-8226 leukemia

Row | Compound | GI50 (IGROV1 ovarian) | TGI (IGROV1 ovarian) | GI50 (HS 578T breast) | TGI (HS 578T breast) | GI50 (HOP-62 NSCLC) | TGI (HOP-62 NSCLC) | GI50 (SK-MEL-5 melanoma) [µM] | TGI (SK-MEL-5 melanoma) | GI50 (MALME-3M melanoma) | TGI (MALME-3M melanoma) | GI50 (SR leukemia) | TGI (SR leukemia) | GI50 (OVCAR-8 ovarian) | TGI (OVCAR-8 ovarian) | GI50 (OVCAR-3 ovarian) | TGI (OVCAR-3 ovarian) | GI50 (MOLT-4 leukemia) | TGI (MOLT-4 leukemia) | TGI (RPMI-8226 leukemia) | GI50 (RPMI-8226 leukemia)
1 | CCN1C(=O)N(CC)C2C1NN=c1s/c(=C3\C(=O)N(CC(C)(C)C)c4ccccc43)c(=O)n12 (stereo not given) | 3.91 µM | 23.6 µM | 2.66 µM | 19.7 µM | 4.93 µM | 22.8 µM | 2.11 | 5.21 µM | 10 µM | 25.5 µM | 0.755 µM | 41.6 µM | 4.67 µM | > 100 µM | 3.17 µM | 12.1 µM | 3.79 µM | 40.3 µM | – | –
2 | Cc1nc2sc3c(c2c(=O)[nH]1)CCCC3 | – | > 100 µM | – | > 100 µM | – | > 100 µM | – | > 100 µM | – | > 100 µM | – | 81.1 µM | – | > 100 µM | – | > 100 µM | – | > 100 µM | > 100 µM | –
3 | c1ccc2c(c1)c1c(c3ccccc32)CN2CCCC2C1 (stereo not given) | – | 12 µM | – | 13.8 µM | – | > 31.9 µM | – | 11.2 µM | – | 7.14 µM | – | > 100 µM | – | 14.5 µM | – | 22.9 µM | – | > 100 µM | > 24.2 µM | –
4 | O=S(=O)(Nc1ccc(F)cc1F)c1ccc(-c2cnc(C3CC3)o2)cc1 | 0.535 µM | 67.2 µM | 0.545 µM | 22.7 µM | 0.724 µM | 47.6 µM | 0.666 | 12.9 µM | 0.615 µM | 34.2 µM | 0.406 µM | > 100 µM | 1.57 µM | > 95.2 µM | 0.493 µM | 11.9 µM | 0.652 µM | > 70.1 µM | 29.8 µM | 0.828 µM
5 | O=C(O)c1ccc(OCc2ccccc2)c(Cl)c1 | – | > 100 µM | – | > 100 µM | – | > 100 µM | – | > 100 µM | – | > 100 µM | – | > 100 µM | – | > 100 µM | – | > 100 µM | – | > 100 µM | > 100 µM | –
6 | Cc1cc(C)c(/C=C2\C(=O)Nc3ccc(NC(=O)CCCCCCC(=O)NO)cc32)[nH]1 | 2.86 µM | > 100 µM | 2.96 µM | > 100 µM | 0.485 µM | 9.83 µM | 0.335 | 14.7 µM | 0.237 µM | > 27.4 µM | 0.416 µM | > 100 µM | 0.638 µM | > 100 µM | 0.882 µM | > 78.2 µM | 0.43 µM | 35.3 µM | > 100 µM | > 100 µM
7 | O=C(c1ccc(/C=C/c2n[nH]c3ccccc23)cc1)N1CCNCC1 | 5.32 µM and 3.14 µM | > 10 µM and 19.1 µM | 1.93 µM and 4.22 µM | 7.36 µM and 31.7 µM | > 10 µM and 3.63 µM | > 10 µM and 19.3 µM | 6.9 | 18.5 µM | 1.52 µM and 1.16 µM | 3.09 µM and 9.38 µM | 1.85 µM and 0.407 µM | 4.23 µM and 10.3 µM | > 10 µM and 14.1 µM | > 10 µM and 34.4 µM | 9.32 µM and 8.01 µM | > 10 µM and 24 µM | 2.26 µM and 2.27 µM | 5.79 µM and 36.3 µM | > 10 µM and 47.3 µM | 4.21 µM and 10.5 µM
8 | NCCSc1nc(-c2ccccc2)c(-c2ccccc2)o1 | – | > 100 µM | – | > 100 µM | – | > 100 µM | – | > 100 µM | – | > 100 µM | – | > 100 µM | – | > 100 µM | – | > 100 µM | – | – | > 100 µM | –
9 | Cc1cc(C)c(NC(=O)c2sc3nc4c(cc3c2N)CN(Cc2ccccc2)CC4)c(C)c1 | 6.54 µM | > 100 µM | 2.66 µM | 65.9 µM | 7.73 µM | > 100 µM | 1.47 | 11.5 µM | 3.44 µM | 42 µM | 1.83 µM | 10.7 µM | 4.72 µM | > 100 µM | 2.32 µM | 12.6 µM | 4.15 µM | > 100 µM | 35.1 µM | 3.18 µM
10 | O=C1NC(=NCCc2cccc(Cl)c2)S/C1=C\c1ccc2ncccc2c1 | > 25 µM | > 25 µM | > 25 µM | > 25 µM | > 25 µM | > 25 µM | > 25 | > 25 µM | > 25 µM | > 25 µM | 0.403 µM | > 25 µM | > 25 µM | > 25 µM | > 25 µM | > 25 µM | > 25 µM | > 25 µM | > 25 µM | > 25 µM
11 | O[C@H](c1cc(C(F)(F)F)nc2c(C(F)(F)F)cccc12)[C@@H]1CCCCN1 | 1.17 µM | 4.14 µM | 4.35 µM | 25.5 µM | 4.73 µM | 11.8 µM | 3.64 | 8.09 µM | 0.875 µM | 5.73 µM | 2.32 µM | 9.5 µM | 5.11 µM | 14.7 µM | 3.38 µM | 11.5 µM | 3.51 µM | 11.1 µM | 42.8 µM | 11.2 µM
12 | N=C(N)c1ccc2nc(-c3cc(CC(=O)N[C@@H](CC(=O)O)C(=O)O)cc(-c4cc(S(N)(=O)=O)ccc4O)c3O)[nH]c2c1 | > 100 µM | > 100 µM | > 100 µM | > 100 µM | > 100 µM | > 100 µM | > 100 | > 100 µM | > 100 µM | > 100 µM | > 100 µM | > 100 µM | > 100 µM | > 100 µM | > 100 µM | > 100 µM | > 100 µM | > 100 µM | > 100 µM | > 100 µM
13 | Cn1cc(C2=C(c3cccc(Br)c3)C(=O)NC2=O)c2ccccc21 | 11 µM | > 25 µM | 3.92 µM | > 25 µM | 18.3 µM | > 25 µM | 6.23 | 22.3 µM | > 19.2 µM | > 25 µM | 7.33 µM | > 25 µM | 12.6 µM | > 25 µM | 9.51 µM | > 25 µM | 9.91 µM | > 25 µM | > 25 µM | 20.1 µM
14 | CC(C)(S)C(N)C(=O)O (stereo not given) | – | > 100 µM | – | > 100 µM | > 5000 µM | > 5000 µM | 895 | 2390 µM and > 100 µM | 1130 µM | 3400 µM and > 100 µM | 1840 µM | > 5000 µM | 3450 µM | > 5000 µM | 1250 µM | 3990 µM and > 100 µM | 3040 µM | > 5000 µM | > 5000 µM | 3830 µM
